Like-named read-outs stand apart in the source and are kept apart here.
How the values were obtained:
[1] = set-up: method as in earlier work; settings: ref Chorvat et al., 2012, Klumpers et al., 2013, Knani et al., 2016, Lu et al.; cited from earlier work
DIO mice and rats = tested on: DIO mice and rats; set-up: method as in Alonso et al., 2012; Silvestri and Di Marzo, 2012; settings: ref Alonso et al., 2012, Silvestri and Di Marzo; cited from earlier work
[2] = Steady state brain to plasma distribution after intravenous administration; assay type: in vivo, Sprague-Dawley rats; settings: rat; for fraction of compound in the brain tissue: intravenous, steady state
Experimental: The compounds (2.5 mg/kg) were dissolved in 5% glucose solution containing polyoxyethylene castor oil (2.17%), 1,2-propanediol (0.56%), ethanol (0.75%), and medium chain triglycerides (0.48%) prior to intravenous administration to the Sprague-Dawley rats (n = 3), with an initial push of 0.3 mL at a speed of 75 mL/h, followed by 2.5 mL/h for 40 min. Retro-orbital blood samples (∼250 μL) were collected at defined time-points (0, 10, 15, 20, 25, 30, 35, and 40 min after dosing). The rats were then euthanized by decapitation, the brain and plasma samples were collected, and then stored at -80°C for subsequent assay. The plasma samples and whole rat brain, which had been homogenized with five volumes (v/w) of physiological saline on ice, were extracted by protein precipitation and analyzed using liquid chromatography-mass spectrometry/mass spectrometry, as previously reported ([Fulp et al., 2012]). The steady state Kp-value for each test compound was calculated and used as an index of brain penetration.

C57BL/6 mice [3] = assay: WIN 55,212-2-induced hypothermia / body temperature; assay type: in vivo, C57BL/6J mice; settings: for effect on WIN 55,212-2-induced hypothermia: oral, 1 h before WIN 55,212-2 3 mg/kg i.p., SR141716A 10 mg/kg, TXX-522 20 or 60 mg/kg, 30 min after WIN; for effect of compound alone on body temperature: TXX-522 alone, data not shown, WIN 55,212-2 3 mg/kg i.p.
Experimental: After a 7-day acclimation, body weight-matched male C57BL/6J mice (8-week-old) were randomly sorted into four different groups (n = 5 mice/group). […] The rectal temperature was monitored using a rectal probe coupled to a digital thermometer before and 30 min after treatment with WIN 55,212-2.

C57BL/6 mice [4] = assay: Acute food intake (appetite) in fasted mice; assay type: in vivo; settings: fasted C57BL/6 mice, oral; TXX-522 20 and 60 mg/kg, SR141716A 10 mg/kg; 3 h intake
Experimental: Mice (8-week-old) were maintained singly for 7 days with ad libitum access to a standard diet before testing. […] At 30 min post treatment, the mice were allowed access to rodent chow, and their food intake was measured for the subsequent 3 h.

DIO C57BL/6 mice = assay: Anti-obesity study in DIO C57BL/6 mice; assay type: in vivo; settings: for effect on food intake of DIO mice: 1st week of administration; for effect on fasting blood glucose and insulin levels: overnight-fasted; for effect on serum triglyceride and total cholesterol: end of treatment, SR141716A 5 mg/kg, TXX-522 10 mg/kg; for onset of statistically significant body weight difference / effect on body weight of DIO mice: oral gavage daily 4 weeks; for effect on body weight of DIO mice: SR141716A 5 mg/kg/day
Experimental: Male C57BL/6J mice (6-week-old) were maintained on a 12-h light/dark cycle at a controlled temperature (22 ± 1°C) and were fed a high-fat diet (45% fat, 18% protein, and 37% carbohydrate) for 20 weeks to establish the DIO mouse model ([Chen et al., 2010], [2011]). Age-matched standard diet-fed lean mice were used as the normal control group. […] Individual body weights and cage food consumption were measured daily. Oral glucose tolerance testing was performed on treatment day 23 on overnight-fasted mice while the serum glucose and insulin levels were assayed as described previously ([Chen et al., 2013]). At the end of the treatment period, the mice were fasted overnight prior to collecting blood samples for the analysis of serum triglycerides and total cholesterol levels as described previously ([Xie et al., 2015]). Furthermore, the intra-abdominal white adipose tissues (epididymal, lumbar, and perirenal) were removed and weighed.

human CB2R [5] = target: T1, human CB2R (Homo sapiens, UniProt P34972); assay: Intracellular cAMP assay in CHO-hCB2 cells; assay type: cell-based; set-up: host or cells: CHO (CHO-hCB2R); settings: even at 10 μmol/L
Experimental: (§1) The functional antagonism of the response to a CB1R agonist was previously detected in the CHO-hCB1R and CHO-hCB2R cell lines ([Chen et al., 2010], [2011]). Intracellular cAMP was analyzed in these cells using the LANCE cAMP 384 kit (AD0262, PerkinElmer, San Jose, CA, United States) following exposure to the vehicle or different concentrations of the test compounds (individually or combined) in the presence of a phosphodiesterase inhibitor (2.5 μmol/L 3-isobutyl-1-methylxanthine) for 30 min. The cAMP level detected in the vehicle-treated cells was set as 1, and the levels detected in the treated cells were expressed as fold changes compared to the control level.

human CB1R [6] = target: T2, human CB1R (Homo sapiens, UniProt P21554); assay type: cell-based
From the text: (§2) Commercial enhanced green fluorescent protein (EGFP)-CB1/CB2_U2OS cells specifically designed to screen CB1R/CB2R agonists or antagonists (Thermo Fisher Bioimage ApS, Soeborg, Denmark) were used to examine the antagonist activity and selectivity of TXX-522 for these CBR subtypes. […] Based on a previously described method ([Chen et al., 2011]), the regular EGFP-CB1/CB2_U2OS cell culture medium was replaced with F12 culture medium containing 1 μmol/L Hoechst 33342 (Invitrogen, OR, United States) before each experiment, and incubated for 20 min at 37°C. […] Dimethyl sulfoxide (DMSO, 0.1%) was used as the vehicle control. After further incubation for 2 h at 37°C, images of the cells were acquired using the IN Cell Analyzer 2000 (GE Healthcare, NJ, United States; 20× objective) and analyzed using the Granularity Analysis Module of the IN Cell. The inhibition ratio of each tested compound was expressed as percentage inhibition of the internalization induced by the reference CB1R/CB2R agonist, WIN 55,212-2. […] The results were obtained from three independent experiments each performed in triplicate.

human CB2R [7] = target: T1, human CB2R; assay: Receptor internalization (redistribution) assay in EGFP-CB2_U2OS cells; assay type: cell-based; settings: read-out: IC50 CB2R, antagonism of WIN 55,212-2-induced internalization
From the text: as §2

rat hippocampal neurons = assay: Fluoro-3 AM Ca2+ imaging in hippocampal neurons; assay type: cell-based; settings: 10 nmol/L to 10 μmol/L; WIN 55,212-2 1 μmol/L; concentration-dependent
Experimental: Hippocampal neurons were prepared from neonatal rats as described previously and intracellular Ca^2+ levels ([Ca^2+]i) were investigated ([Chen et al., 2010]). […] WIN 55,212-2 (1 μmol/L) was added 1 min later. The fluorescence was monitored and imaged using the IN Cell Analyzer 1000 and analyzed using the Object Intensity Analysis Module of IN Cell. The [Ca^2+]i time courses were monitored by recording the relative fluorescence intensity per cell vs. time.

DIO Kunming mice = assay: Preliminary screening test in DIO Kunming mice; assay type: in vivo; settings: 3-week treatment, 20 mg/kg, data not shown
From the text: Finally, we further evaluated the in vivo pharmacodynamic effects of TXX-522 in a commonly used mouse model of obesity.

human CB1R [8] = target: T2, human CB1R; assay type: binding; set-up: host or cells: CHO (CHO-hCB1R)
Experimental: (§3) The affinities of TXX-522 for the human CB1R and CB2R receptor were analyzed using Cerep cooperation (Celle l’Evescault, France) using stably transfected CHO cells (CHO-hCB1R and CHO-hCB2R, respectively) and a previously reported competitive binding assay ([Munro et al., 1993]; [Chen et al., 2011]). Non-specific binding was determined in the presence of 10 μmol/L non-radioactive WIN 55,212-2. […] Each competitive binding inhibition curve was generated using data pooled from three independent experiments each conducted in duplicate.

human CB2R [9] = target: T1, human CB2R; assay: Competitive radioligand binding assay, CHO-hCB2R; set-up: host or cells: CHO (CHO-hCB2R); settings: CHO-hCB2R cells; read-out: IC50, CB2 receptor competitive binding
Experimental: as §3

human CB1R [10] = target: T2, human CB1R; assay: Intracellular cAMP assay in CHO-hCB1 cells; assay type: cell-based; set-up: host or cells: CHO (CHO-hCB1R)
Experimental: as §1

[11] = 2.5 mg/kg intravenous infusion, 40 min

T1 sequence (P34972 whole entry): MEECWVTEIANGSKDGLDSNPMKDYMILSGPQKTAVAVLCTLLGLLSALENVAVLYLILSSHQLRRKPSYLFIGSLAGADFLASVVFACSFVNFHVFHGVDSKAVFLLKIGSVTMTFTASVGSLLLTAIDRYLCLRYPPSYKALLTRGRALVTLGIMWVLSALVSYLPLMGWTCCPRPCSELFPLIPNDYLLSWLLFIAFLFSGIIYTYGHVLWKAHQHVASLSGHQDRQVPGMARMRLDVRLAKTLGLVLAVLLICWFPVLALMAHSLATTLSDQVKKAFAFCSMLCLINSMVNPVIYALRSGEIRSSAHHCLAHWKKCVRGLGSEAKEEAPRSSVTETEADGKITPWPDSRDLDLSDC
T2 sequence (P21554 whole entry): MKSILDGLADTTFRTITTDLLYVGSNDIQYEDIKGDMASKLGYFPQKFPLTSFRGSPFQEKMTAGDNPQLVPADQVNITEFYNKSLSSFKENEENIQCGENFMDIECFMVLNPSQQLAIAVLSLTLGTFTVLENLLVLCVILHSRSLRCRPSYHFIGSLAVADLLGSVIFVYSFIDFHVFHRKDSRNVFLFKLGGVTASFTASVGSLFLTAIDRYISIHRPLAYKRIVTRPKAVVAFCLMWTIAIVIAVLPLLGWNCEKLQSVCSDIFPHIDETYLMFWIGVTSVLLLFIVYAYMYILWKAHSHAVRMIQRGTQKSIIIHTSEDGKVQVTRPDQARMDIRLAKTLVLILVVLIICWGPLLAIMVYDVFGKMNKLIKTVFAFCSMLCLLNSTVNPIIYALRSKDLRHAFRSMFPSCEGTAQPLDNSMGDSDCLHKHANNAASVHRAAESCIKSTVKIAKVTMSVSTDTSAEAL

Compound: CC(C)[C@H](N=C(NS(=O)(=O)c1ccc(Cl)cc1)N1C[C@H](c2ccccc2)C(c2ccc(Cl)cc2)=N1)C(N)=O [JD-5037]
- brain to plasma distribution ratio (Kp) [1]: < 1
- anorexia in DIO mice and rats (DIO mice and rats): induced anorexia

Compound: CCCCCCc1nc(-c2ccc(Cl)cc2)n(-c2ccc(Cl)cc2Cl)n1 [LH-21]
- anorexia in DIO mice and rats (DIO mice and rats): induced anorexia

Compound: Cc1c(C(=O)NN2CCCCC2)nn(-c2ccc(Cl)cc2Cl)c1-c1ccc(Cl)cc1 [SR141716A, reference compound]
- Kp at 40 min ([2]; Sprague-Dawley, brain and plasma, 2.5 mg/kg intravenous infusion, read-out: Kp (brain to plasma distribution ratio, steady state)): 1.67
- fraction of compound in the brain tissue [2]: > 60%
- effect on WIN 55,212-2-induced hypothermia (C57BL/6 mice [3]): reversed
- effect on acute food intake (C57BL/6 mice [4]): significantly inhibited food intake
- effect on food intake of DIO mice (DIO C57BL/6 mice): reduced food intake
- effect on fasting blood glucose and insulin levels (DIO C57BL/6 mice; DIO mice): dramatically decreased
- effect on serum triglyceride and total cholesterol (DIO C57BL/6 mice): notably reduced hypertriglyceridemia
- onset of statistically significant body weight difference (DIO C57BL/6 mice): from day 4 onward
- effect on body weight of DIO mice (DIO C57BL/6 mice; TXX-522 5 or 10 mg/kg/day): significant reduction
- effect on intracellular cAMP level in CHO-hCB2 cells (human CB2R [5]): neither TXX-522 nor SR141716A affected

Compound: Cc1c(C(=O)c2cccc3ccccc23)c2cccc3c2n1[C@H](CN1CCOCC1)CO3 [WIN 55,212-2, reference compound]
- effect of compound alone on body temperature (C57BL/6 mice [3]): notably decreased the body temperature

Compound: (5-(4-chlorophenyl)-1-(2, 4-dichlorophenyl)-4-methyl-1H-pyrazol-3-yl) (piperidin-1-yl) methanone [TXX-522]
- IC50 (human CB1R [6]; EGFP-CB1_U2OS cells, WIN 55,212-2 1 μmol/L, read-out: IC50 CB1R, antagonism of WIN 55,212-2-induced internalization): 10.3 ± 6.08 nM
- CB2R/CB1R selectivity (internalization IC50 ratio) (human CB1R [6]; EGFP-CB1_U2OS vs EGFP-CB2_U2OS cells): >968
- IC50 (human CB2R [7]): > 10000 nM
- Kp (brain to plasma distribution ratio, steady state) ([2]; 2.5 mg/kg intravenous infusion): 0.02
- steady state concentration in brain [2, 11]: 528.9 ± 1.6 ng/mL
- steady state concentration in plasma [2, 11]: 23323.0 ± 267.8 ng/mL
- fraction of compound in the brain tissue [2]: 2%
- effect of compound alone on body temperature (C57BL/6 mice [3]): did not affect the body temperature
- effect on WIN 55,212-2-induced hypothermia (C57BL/6 mice [3]): did not block
- effect on acute food intake (C57BL/6 mice [4]): did not affect acute food consumption
- effect on elevation and oscillation of [Ca2+]i elicited by WIN 55,212-2 (rat hippocampal neurons): blocked
- effect on insulin resistance and hyperinsulinemia (DIO C57BL/6 mice; 5 mg/kg): ameliorated the insulin resistance and hyperinsulinemia more than the same dose of SR141716A did
- effect on food intake of DIO mice (DIO C57BL/6 mice): no anorexia
- adverse effects / apparent signs of toxicity (DIO C57BL/6 mice; DIO mice, 4 weeks, TXX-522 5 or 10 mg/kg/day): no adverse effects
- effect on fasting blood glucose and insulin levels (DIO C57BL/6 mice; DIO mice): dramatically decreased
- weight loss and abdominal fat decrease by the end of the study (DIO C57BL/6 mice; chronic treatment, 5 and 10 mg/kg, compared with SR141716A): comparable efficacy to that of SR141716A
- effect on serum triglyceride and total cholesterol (DIO C57BL/6 mice): lowered both serum triglyceride and total cholesterol levels
- onset of statistically significant body weight difference (DIO C57BL/6 mice): from 2 weeks
- effect on body weight of DIO mice (DIO C57BL/6 mice; TXX-522 5 or 10 mg/kg/day): dose-dependently decreased
- oral glucose tolerance testing (DIO C57BL/6 mice; treatment day 23, 5 mg/kg): ameliorated glucose intolerance more than the same dose of SR141716A did
- effect on body weight and fat mass (DIO Kunming mice): significantly reduced body weight and fat mass
- IC50 (human CB1R [8]; CHO-hCB1R cells, radioligand [3H]-CP 55,940 or [3H]-SR141716A, read-out: IC50, CB1R competitive binding): 170 nM
- Ki (human CB1R [8]; CHO-hCB1R cells, radioligand [3H]-CP 55,940 or [3H]-SR141716A, read-out: Ki, CB1R competitive binding): 150 nM
- selectivity ratio (CB1R over CB2R, binding) (human CB1R [8]; from radioligand binding values): 176
- IC50 (human CB2R [9]): > 30000 nM
- reversal of WIN 55,212-2-induced inhibition of forskolin-stimulated cAMP accumulation (human CB1R [10]; WIN 1 μmol/L, forskolin 0.1 μmol/L): dose-dependently reversed
- maximum effect on cAMP (human CB1R [10]; at 10 μmol/L with forskolin plus WIN): equivalent to that induced by forskolin alone
- effect of compound alone on forskolin-induced cAMP level (inverse agonism) (human CB1R [10]; up to 10 μmol/L, data not shown): no further increase
- effect on intracellular cAMP level in CHO-hCB2 cells (human CB2R [5]): neither TXX-522 nor SR141716A affected
